Reference: patent US20210177828A1, “TAM FAMILY KINASE /AND CSF1R KINASE INHIBITOR AND USE THEREOF” (Nanjing Transthera Biosciences Co., Ltd., priority 2018, published 2021)

Tests used:
Format in all cases: biochemical
Axl (h) = molecular target: T1, Axl (h) (Homo sapiens, UniProt P30530); experiment: Enzymatic activity assay, Axl (h), [γ-33P]-ATP filter assay; conditions: 10 μM ATP, 40 min room temperature; read-out: Inhibitory activity IC50 Axl(h)
T1 sequence (P30530 26-894): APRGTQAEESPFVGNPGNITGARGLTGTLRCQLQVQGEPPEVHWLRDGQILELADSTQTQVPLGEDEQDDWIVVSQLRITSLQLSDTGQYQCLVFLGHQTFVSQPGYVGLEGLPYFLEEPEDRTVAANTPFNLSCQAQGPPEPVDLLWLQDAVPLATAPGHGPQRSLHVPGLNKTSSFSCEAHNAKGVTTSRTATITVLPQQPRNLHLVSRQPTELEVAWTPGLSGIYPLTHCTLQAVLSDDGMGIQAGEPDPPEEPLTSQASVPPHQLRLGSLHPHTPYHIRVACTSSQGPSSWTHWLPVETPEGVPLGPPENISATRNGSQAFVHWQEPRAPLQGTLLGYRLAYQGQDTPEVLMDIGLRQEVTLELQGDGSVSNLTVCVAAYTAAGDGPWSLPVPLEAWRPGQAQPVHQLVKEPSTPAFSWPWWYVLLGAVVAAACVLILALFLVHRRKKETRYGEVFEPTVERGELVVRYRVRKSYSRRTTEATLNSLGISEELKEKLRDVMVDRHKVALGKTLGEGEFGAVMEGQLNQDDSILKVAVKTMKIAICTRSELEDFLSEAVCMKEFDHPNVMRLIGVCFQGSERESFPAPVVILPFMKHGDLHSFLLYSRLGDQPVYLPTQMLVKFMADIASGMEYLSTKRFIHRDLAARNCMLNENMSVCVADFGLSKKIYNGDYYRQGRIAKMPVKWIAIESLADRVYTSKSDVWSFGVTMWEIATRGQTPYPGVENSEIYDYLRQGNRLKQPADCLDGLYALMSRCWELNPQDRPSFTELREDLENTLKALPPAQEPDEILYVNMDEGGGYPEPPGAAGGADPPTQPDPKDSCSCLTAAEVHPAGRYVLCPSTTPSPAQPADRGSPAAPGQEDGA
Procedure: (§1) Compounds were each dissolved in 100% DMSO to prepare stock solutions with a maximum concentration of 500 μM.
(§2) Compound working solutions (50×) were prepared by diluting a compound stock solution to a final concentration of 500, 150, 50, 15, 5, 1.5, 0.5, 0.15 and 0.05 μM.
An enzyme solution with a final concentration of 1.7 nM was prepared by dissolving Axl (h) enzyme in a mixture of 8 mM MOPS (pH 7.0), 0.2 mM EDTA and 250 μM KKSRGDYMTMQIG. A Mg/ATP mixture of 10 mM magnesium acetate and 10 μM [γ-^33P]-ATP was used to activate the enzymatic reaction.
(§3) A compound working solution was added to a 384-well plate, with final concentrations of 10,000, 3,000, 1,000, 300, 100, 30, 10, 3 and 1 nM, and then different enzymatic reaction solutions prepared according to the above conditions were added. The reaction solutions were incubated at room temperature for 40 min, and then 0.5% phosphoric acid solutions were added to terminate the reaction. 10 μL of the reaction solution was added dropwise to P30 filter paper, washed 4 times with a 0.425% phosphoric acid solution and once with methanol, and then placed in a scintillation counter for detection. Gray analysis was performed on the results with Image J software, and IC50 values were calculated with GraphPad 5.0 software.

Tyro-3 (h) = molecular target: T2, Tyro-3 (h) (Homo sapiens, UniProt Q06418); experiment: Enzymatic activity assay, Tyro-3 (h), [γ-33P]-ATP filter assay; conditions: 10 μM ATP, 40 min room temperature; read-out: Inhibitory activity IC50 Tyro-3(h)
T2 sequence (Q06418 41-890): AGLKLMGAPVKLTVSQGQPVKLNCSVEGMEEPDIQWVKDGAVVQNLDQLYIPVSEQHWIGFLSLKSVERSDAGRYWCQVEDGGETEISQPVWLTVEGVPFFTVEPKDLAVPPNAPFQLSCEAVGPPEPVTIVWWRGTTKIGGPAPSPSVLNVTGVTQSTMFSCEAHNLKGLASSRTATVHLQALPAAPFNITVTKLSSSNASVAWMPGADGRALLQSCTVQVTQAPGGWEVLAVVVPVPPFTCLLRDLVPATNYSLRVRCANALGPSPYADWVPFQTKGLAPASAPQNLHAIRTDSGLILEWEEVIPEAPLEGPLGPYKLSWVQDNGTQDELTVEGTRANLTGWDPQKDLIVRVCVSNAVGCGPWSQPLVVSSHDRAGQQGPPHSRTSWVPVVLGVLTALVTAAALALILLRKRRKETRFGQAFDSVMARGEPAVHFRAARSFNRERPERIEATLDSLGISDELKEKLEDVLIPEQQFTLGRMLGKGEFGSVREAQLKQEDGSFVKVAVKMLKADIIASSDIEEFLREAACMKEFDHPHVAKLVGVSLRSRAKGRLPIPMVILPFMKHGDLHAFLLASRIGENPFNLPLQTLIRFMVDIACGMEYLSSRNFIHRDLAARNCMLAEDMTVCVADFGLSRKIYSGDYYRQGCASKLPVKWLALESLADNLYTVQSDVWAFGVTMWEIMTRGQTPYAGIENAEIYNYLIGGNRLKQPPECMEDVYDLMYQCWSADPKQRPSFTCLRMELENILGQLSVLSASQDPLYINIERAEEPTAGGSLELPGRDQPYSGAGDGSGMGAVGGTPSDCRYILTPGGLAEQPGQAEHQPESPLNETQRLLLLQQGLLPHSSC
Procedure: as §1, §2
An enzyme solution with a final concentration of 38 nM was prepared by dissolving Tyro3 (h) enzyme in a mixture of 8 mM MOPS (pH 7.0), 0.2 mM EDTA, 1 mM MnCl2 and 250 μM KVEKIGEGTYGVVYK. A Mg/ATP mixture of 10 mM magnesium acetate and 10 μM [γ-^33P]-ATP was used to activate the enzymatic reaction.
as §3

Mer (h) = molecular target: T3, Mer (h) (Homo sapiens, UniProt Q12866); experiment: Enzymatic activity assay, Mer (h), [γ-33P]-ATP filter assay; conditions: 10 μM ATP, 40 min room temperature; read-out: Inhibitory activity IC50 Mer(h)
T3 sequence (Q12866 21-999): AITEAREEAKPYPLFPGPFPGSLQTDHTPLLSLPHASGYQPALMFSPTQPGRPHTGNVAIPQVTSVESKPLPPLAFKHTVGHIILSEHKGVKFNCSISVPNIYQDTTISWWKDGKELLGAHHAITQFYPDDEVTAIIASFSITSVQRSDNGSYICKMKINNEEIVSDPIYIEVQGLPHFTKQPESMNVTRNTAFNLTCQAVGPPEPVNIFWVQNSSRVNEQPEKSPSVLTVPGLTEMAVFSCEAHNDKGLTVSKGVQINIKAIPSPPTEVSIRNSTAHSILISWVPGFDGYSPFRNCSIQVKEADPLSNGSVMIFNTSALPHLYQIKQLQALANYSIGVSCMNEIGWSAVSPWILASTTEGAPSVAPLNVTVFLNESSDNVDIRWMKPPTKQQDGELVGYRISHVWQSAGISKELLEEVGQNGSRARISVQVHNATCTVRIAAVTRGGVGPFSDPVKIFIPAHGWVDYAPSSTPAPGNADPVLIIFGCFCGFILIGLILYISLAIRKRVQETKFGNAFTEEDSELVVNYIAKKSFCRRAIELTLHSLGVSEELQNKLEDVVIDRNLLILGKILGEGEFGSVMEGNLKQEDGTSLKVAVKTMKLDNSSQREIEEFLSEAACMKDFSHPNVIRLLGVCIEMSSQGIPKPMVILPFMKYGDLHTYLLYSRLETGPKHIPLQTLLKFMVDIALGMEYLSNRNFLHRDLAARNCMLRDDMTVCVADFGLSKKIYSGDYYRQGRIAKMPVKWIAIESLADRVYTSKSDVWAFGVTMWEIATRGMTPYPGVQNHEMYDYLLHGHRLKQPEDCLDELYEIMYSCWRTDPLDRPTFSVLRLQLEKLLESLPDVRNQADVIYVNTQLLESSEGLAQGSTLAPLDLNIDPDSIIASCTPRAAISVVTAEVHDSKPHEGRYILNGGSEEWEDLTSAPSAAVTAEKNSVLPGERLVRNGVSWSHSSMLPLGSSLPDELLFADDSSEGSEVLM
Procedure: as §1, §2
An enzyme solution with a final concentration of 3.1 nM was prepared by dissolving Mer (h) enzyme in a mixture of 8 mM MOPS (pH 7.0), 0.2 mM EDTA, 30 mM NaCl and 250 μM GGMEDIYFEFMGGKKK. A Mg/ATP mixture of 10 mM magnesium acetate and 10 μM [γ-^33P]-ATP was used to activate the enzymatic reaction.
as §3

IC50 (Axl (h)) [nM] | IC50 (Tyro-3 (h)) [nM] | IC50 (Mer (h)) [nM] | SMILES
19 | 29 | 1 | COc1cc2nccc(Oc3ccc(NC(=O)c4nn(CC5CCSCC5)cc(-c5ccc(C)cc5)c4=O)nc3)c2cc1OC [Compound 21, N-(5-((6,7-dimethoxyquinolin-4-yl)oxy)pyridin-2-yl)-4-oxo-1-((tetrahydro-2H-thiopyran-4-yl)methyl)-5-(p-tolyl)-1,4-dihydropyridazin-3-carboxamide]
16 | 103 | 5 | COc1cc2nccc(Oc3cnc(NC(=O)c4cn(CC5CCSCC5)cc(-c5ccc(C)cc5)c4=O)nc3)c2cc1OC [Compound 22, N-(5-((6,7-dimethoxyquinolin-4-yl)oxy)pyrimidin-2-yl)-4-oxo-1-((tetrahydro-2H-thiopyran-4-yl)methyl)-5-(p-tolyl)-1,4-dihydropyridin-3-carboxamide]
9 | 33 | 8 | COc1cc2nccc(Oc3cnc(NC(=O)c4nn(CC5CCSCC5)cc(-c5ccc(C)cc5)c4=O)nc3)c2cc1OC [Compound 23, N-(5-((6,7-dimethoxyquinolin-4-yl)oxy)pyrimidin-2-yl)-4-oxo-1-((tetrahydro-2H-thiopyran-4-yl)methyl)-5-(p-tolyl)-1,4-dihydropyridazin-3-carboxamide]
44 | – | – | COc1ccc(-c2cnc(N)c(-c3ccc(NC(=O)c4cc(-c5ccc(C)cc5)cn(CC5CCOCC5)c4=O)cc3)c2)cc1OC [Compound 35, N-(4-(2-amino-5-(3,4-dimethoxyphenyl)pyridin-3-yl)phenyl)-2-oxo-1-((tetrahydro-2H-pyran-4-yl)methyl)-5-(p-tolyl)-1,2-dihydropyridin-3-carboxamide]
57 | – | – | COc1ccc(-c2cnc(N)c(-c3ccc(NC(=O)c4cn(CC5CCOCC5)c(=O)n(-c5ccc(C)cc5)c4=O)cc3)c2)cc1OC [Compound 37, N-(4-(2-amino-5-(3,4-dimethoxyphenyl)pyridin-3-yl)phenyl)-2,4-dioxo-1-((tetrahydro-2H-pyran-4-yl)methyl)-3-(p-tolyl)-1,2,3,4-tetrahydropyrimidin-5-carboxamide]
22 | – | – | COc1cc2nccc(O[C@H]3CC[C@@H](NC(=O)c4cn(CC5CCOCC5)cc(-c5ccc(C)cc5)c4=O)CC3)c2cc1OC [Compound 38, N-((cis)-4-((6,7-dimethoxyquinolin-4-yl)oxy)cyclohexyl)-4-oxo-1-((tetrahydro-2H-pyran-4-yl)methyl)-5-(p-tolyl)-1,4-dihydropyridin-3-carboxamide]
